Tests used:
[1] = target: Beta-1 adrenergic receptor (Homo sapiens, UniProt P08588); assay type: functional, cell-based
[2] = target: Sodium channel protein type 5 subunit alpha (Homo sapiens, UniProt Q14524); assay type: functional, cell-based
[3] = target: T1, Corticotropin-releasing factor receptor 1 (Homo sapiens, UniProt P34998)
T1 sequence (P34998 whole entry): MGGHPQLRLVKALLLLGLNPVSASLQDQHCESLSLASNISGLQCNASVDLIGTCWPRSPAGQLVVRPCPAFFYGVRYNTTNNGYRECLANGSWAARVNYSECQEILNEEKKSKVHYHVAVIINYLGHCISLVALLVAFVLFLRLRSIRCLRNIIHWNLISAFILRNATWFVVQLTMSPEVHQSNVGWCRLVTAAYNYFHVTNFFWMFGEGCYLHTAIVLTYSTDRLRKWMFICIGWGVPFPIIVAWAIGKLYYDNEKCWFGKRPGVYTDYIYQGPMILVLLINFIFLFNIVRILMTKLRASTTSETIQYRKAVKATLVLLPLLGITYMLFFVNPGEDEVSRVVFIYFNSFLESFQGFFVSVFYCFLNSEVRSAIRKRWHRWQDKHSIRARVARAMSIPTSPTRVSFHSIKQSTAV

[4] = target: T2, Corticotropin-releasing factor receptor 2 (Homo sapiens, UniProt Q13324)
T2 sequence (Q13324 whole entry): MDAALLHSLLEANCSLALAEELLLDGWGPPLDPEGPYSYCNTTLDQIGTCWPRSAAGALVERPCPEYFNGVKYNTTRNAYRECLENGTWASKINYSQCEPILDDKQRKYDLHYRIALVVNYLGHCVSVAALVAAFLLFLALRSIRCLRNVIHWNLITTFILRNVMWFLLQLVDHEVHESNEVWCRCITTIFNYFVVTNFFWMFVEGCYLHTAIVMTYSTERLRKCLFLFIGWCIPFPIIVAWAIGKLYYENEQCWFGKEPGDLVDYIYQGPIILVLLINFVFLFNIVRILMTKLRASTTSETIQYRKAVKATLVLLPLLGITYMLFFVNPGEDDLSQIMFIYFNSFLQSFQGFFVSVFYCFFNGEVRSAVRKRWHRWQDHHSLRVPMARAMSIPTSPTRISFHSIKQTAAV

[5] = target: T3, Endothelin receptor type B (Homo sapiens, UniProt P24530)
T3 sequence (P24530 whole entry): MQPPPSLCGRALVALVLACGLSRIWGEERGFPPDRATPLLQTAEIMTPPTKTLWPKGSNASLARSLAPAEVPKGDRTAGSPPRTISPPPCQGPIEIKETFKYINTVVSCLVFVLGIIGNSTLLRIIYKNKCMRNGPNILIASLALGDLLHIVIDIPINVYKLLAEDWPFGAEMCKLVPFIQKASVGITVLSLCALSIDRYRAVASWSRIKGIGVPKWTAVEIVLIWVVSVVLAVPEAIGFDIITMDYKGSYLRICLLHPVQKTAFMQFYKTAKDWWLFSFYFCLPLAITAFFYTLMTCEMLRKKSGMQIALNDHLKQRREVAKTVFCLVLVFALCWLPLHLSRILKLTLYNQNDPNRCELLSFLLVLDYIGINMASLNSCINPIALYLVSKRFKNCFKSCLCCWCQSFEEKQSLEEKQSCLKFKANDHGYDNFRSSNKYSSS

[6] = target: T4, Gastric inhibitory polypeptide receptor (Homo sapiens, UniProt P48546)
T4 sequence (P48546 whole entry): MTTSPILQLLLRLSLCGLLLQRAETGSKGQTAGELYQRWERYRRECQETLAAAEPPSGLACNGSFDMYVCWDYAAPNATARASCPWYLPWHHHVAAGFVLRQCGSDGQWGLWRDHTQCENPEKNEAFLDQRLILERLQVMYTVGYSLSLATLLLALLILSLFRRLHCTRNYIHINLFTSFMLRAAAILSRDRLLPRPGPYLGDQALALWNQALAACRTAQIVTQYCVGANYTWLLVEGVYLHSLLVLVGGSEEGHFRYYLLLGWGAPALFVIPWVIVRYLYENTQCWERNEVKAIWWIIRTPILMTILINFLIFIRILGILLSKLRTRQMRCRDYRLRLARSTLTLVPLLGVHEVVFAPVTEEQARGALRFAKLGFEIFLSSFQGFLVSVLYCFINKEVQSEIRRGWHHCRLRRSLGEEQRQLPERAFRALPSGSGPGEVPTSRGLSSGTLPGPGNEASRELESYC

[7] = target: 5-hydroxytryptamine receptor 6 (Homo sapiens, UniProt P50406)
[8] = target: T5, Neuropeptide Y receptor type 2 (Homo sapiens, UniProt P49146)
T5 sequence (P49146 whole entry): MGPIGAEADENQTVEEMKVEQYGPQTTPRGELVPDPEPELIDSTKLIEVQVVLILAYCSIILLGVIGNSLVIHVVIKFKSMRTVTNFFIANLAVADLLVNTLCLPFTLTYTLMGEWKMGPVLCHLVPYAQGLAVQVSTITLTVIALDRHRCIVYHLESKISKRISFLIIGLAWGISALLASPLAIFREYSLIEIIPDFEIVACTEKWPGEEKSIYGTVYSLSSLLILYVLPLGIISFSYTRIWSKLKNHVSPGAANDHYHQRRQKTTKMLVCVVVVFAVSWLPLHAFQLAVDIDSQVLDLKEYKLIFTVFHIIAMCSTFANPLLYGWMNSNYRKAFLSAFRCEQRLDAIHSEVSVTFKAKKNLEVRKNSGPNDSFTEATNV

[9] = target: T6, Alpha-1A adrenergic receptor (Homo sapiens, UniProt P35348)
T6 sequence (P35348 whole entry): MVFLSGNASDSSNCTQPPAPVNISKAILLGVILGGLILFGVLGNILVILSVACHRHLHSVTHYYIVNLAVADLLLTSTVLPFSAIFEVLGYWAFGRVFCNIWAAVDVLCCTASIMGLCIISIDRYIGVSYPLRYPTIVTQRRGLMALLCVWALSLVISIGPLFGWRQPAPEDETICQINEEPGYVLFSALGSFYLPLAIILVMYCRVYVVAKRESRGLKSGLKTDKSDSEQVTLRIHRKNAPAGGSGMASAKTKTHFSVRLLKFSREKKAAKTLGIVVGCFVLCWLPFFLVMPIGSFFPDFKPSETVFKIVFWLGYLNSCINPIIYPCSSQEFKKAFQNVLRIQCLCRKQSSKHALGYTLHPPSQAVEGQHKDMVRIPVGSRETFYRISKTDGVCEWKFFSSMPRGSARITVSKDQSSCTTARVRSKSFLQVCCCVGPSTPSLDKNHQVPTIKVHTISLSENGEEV
Also: assay procedure not described here.

Sequence of 5-hydroxytryptamine receptor 6 (P50406 whole entry): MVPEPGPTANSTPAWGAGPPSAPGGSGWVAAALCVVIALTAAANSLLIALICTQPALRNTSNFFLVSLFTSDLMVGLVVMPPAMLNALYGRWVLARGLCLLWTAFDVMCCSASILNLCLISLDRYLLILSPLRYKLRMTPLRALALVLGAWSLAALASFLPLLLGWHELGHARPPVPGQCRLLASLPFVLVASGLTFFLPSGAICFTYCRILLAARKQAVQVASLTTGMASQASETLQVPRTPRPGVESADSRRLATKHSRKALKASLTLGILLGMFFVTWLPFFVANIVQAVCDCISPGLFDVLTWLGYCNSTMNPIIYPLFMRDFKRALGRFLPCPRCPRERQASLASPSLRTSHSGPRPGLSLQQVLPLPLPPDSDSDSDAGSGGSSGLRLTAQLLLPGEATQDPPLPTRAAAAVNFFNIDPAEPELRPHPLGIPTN
Sequence of Sodium channel protein type 5 subunit alpha (Q14524 whole entry): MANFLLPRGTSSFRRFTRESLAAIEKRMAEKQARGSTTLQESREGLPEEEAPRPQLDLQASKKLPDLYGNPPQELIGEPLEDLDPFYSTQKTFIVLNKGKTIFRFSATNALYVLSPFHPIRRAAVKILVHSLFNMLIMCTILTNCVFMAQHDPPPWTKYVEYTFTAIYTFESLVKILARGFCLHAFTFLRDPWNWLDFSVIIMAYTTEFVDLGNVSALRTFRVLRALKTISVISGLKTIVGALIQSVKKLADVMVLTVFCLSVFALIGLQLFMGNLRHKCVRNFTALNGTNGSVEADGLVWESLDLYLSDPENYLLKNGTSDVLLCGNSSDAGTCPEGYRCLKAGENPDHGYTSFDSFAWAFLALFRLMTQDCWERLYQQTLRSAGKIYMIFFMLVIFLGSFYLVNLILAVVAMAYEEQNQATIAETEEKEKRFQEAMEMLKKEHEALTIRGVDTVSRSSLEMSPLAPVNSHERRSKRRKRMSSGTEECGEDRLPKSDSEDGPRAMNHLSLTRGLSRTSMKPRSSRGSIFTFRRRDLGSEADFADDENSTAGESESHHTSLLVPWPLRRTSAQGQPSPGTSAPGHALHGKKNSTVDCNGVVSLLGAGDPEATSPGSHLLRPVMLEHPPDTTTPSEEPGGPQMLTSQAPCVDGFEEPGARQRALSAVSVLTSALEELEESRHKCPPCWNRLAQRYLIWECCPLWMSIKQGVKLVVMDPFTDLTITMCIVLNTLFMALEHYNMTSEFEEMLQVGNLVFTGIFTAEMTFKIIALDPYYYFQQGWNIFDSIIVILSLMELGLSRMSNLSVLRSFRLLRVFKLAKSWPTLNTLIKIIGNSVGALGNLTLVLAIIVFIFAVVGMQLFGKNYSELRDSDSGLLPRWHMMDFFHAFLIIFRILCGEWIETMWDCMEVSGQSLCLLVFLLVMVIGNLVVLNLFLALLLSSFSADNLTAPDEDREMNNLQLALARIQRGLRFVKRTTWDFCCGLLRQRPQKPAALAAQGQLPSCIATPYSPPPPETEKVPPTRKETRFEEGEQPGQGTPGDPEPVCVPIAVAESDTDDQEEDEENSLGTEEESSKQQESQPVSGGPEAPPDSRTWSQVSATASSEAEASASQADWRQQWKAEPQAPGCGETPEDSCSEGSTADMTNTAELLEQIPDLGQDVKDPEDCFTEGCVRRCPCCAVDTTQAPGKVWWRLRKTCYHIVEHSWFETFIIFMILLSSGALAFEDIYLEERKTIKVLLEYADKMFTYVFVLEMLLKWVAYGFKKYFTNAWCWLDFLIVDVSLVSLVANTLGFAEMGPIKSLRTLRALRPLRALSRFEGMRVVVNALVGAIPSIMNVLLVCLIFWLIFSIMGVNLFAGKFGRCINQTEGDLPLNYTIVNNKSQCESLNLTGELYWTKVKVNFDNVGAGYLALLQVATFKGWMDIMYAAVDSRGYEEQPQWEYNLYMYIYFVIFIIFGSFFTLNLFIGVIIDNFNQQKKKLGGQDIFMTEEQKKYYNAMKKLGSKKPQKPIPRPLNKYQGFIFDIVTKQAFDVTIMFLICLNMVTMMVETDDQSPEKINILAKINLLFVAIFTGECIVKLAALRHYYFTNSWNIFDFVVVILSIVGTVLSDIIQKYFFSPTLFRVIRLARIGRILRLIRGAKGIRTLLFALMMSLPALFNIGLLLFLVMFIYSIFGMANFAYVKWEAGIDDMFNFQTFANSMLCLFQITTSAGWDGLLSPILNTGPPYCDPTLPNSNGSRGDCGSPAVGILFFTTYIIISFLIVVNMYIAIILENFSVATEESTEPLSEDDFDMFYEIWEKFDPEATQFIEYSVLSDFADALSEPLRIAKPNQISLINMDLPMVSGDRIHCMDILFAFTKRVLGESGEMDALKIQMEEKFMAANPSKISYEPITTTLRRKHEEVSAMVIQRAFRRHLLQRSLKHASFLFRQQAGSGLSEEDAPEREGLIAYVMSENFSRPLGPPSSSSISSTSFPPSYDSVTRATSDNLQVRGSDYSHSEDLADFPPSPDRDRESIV
Sequence of Beta-1 adrenergic receptor (P08588 whole entry): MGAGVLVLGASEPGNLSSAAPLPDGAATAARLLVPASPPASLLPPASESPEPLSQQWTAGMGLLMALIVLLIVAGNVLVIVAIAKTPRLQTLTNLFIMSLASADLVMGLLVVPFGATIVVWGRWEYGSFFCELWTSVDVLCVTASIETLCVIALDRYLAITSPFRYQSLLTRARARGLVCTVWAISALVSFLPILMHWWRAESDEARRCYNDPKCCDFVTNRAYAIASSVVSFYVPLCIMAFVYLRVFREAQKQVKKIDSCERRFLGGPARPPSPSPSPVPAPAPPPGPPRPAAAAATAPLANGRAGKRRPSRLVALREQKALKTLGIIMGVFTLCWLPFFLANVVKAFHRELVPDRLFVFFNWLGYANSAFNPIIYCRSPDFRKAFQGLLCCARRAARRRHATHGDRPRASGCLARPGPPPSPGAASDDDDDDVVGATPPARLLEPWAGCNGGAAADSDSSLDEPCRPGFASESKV

| Compound | AC50 [1] [µM] | AC50 [2] [µM] | AC50 [3] [µM] | AC50 [4] [µM] | AC50 [5] [µM] | AC50 [6] [µM] | AC50 [7] [µM] | AC50 [8] [µM] | AC50 [9] [µM] |
| --- | --- | --- | --- | --- | --- | --- | --- | --- | --- |
| N#Cc1ccccc1-c1cc(-c2ccccn2)cn(-c2ccccc2)c1=O | > 30 | > 30 |  |  |  |  |  |  |  |
| N=C(N)NCCCCCCC(=O)NC(O)C(=O)NCCCCNCCCN (stereo not given) | > 30 |  |  |  |  |  |  |  |  |
| NCCCC(O)(P(=O)(O)O)P(=O)(O)O [ALENDRONIC ACID] |  | > 30 | > 30 | > 30 | > 30 | > 30 | > 10 | > 30 | > 10 |
| O=C(CCCN1CCC(n2c(O)nc3ccccc32)CC1)c1ccc(F)cc1 [BENPERIDOL] | > 30 |  |  |  |  |  |  |  |  |
| CCCC(C)(COC(N)=O)COC(=O)NC(C)C (stereo not given) [CARISOPRODOL] |  |  | > 30 | > 30 | > 30 | > 30 |  | > 30 | > 10 |
| COCCOC(=O)C1=C(C)NC(C)=C(C(=O)OC/C=C/c2ccccc2)C1c1cccc([N+](=O)[O-])c1 (stereo not given) [CILNIDIPINE] |  | > 50 |  |  |  |  |  |  |  |
| N[C@H](Cc1cc(I)c(Oc2cc(I)c(O)c(I)c2)c(I)c1)C(=O)O [DEXTROTHYROXINE] |  |  | > 30 | > 30 | > 30 | > 30 |  | > 30 |  |
| COC(=O)N[C@@H](C)CNc1nccc(-c2cn(C(C)C)nc2-c2cc(Cl)cc(NS(C)(=O)=O)c2F)n1 [ENCORAFENIB] |  | > 30 |  |  |  |  |  |  |  |
| CCCN(CC)C(CC)C(=O)Nc1c(C)cccc1C (stereo not given) [ETIDOCAINE] |  | 28 |  |  |  |  |  |  |  |
| CC(=O)OCC(CCn1cnc2cnc(N)nc21)COC(C)=O [FAMCICLOVIR] |  |  | > 30 | > 30 | > 30 | > 30 |  | > 30 | > 10 |
| O=C(O)c1ccccc1Nc1cccc(C(F)(F)F)c1 [FLUFENAMIC ACID] |  |  | > 30 | > 30 | > 30 | > 30 |  | > 30 |  |
| C#C[C@]1(O)CC[C@H]2[C@@H]3CCC4=CC(=O)CCC4=C3C=C[C@@]21CC [GESTRINONE] | > 30 |  |  |  |  |  |  |  |  |
| CCCCCCOC(=O)CCC(=O)CN [HEXAMINOLEVULINATE] | > 30 |  |  |  |  |  |  |  |  |
| COC1=C(OC)C(=O)C(CCCCCCCCCCO)=C(C)C1=O [IDEBENONE] |  |  | > 30 | > 30 | > 30 | > 30 | > 10 | > 30 | > 10 |
| CC#CCn1c(N2CCC[C@@H](N)C2)nc2c1c(=O)n(Cc1nc(C)c3ccccc3n1)c(=O)n2C [LINAGLIPTIN] |  | > 150 |  |  |  |  |  |  |  |
| Cc1ccc(NC(=O)C2(c3ccc4c(c3)OC(F)(F)O4)CC2)nc1-c1cccc(C(=O)O)c1 [LUMACAFTOR] |  | > 50 |  |  |  |  |  |  |  |
| O=C1CN=C(c2ccccc2)c2cc(Cl)ccc2N1 [NORDAZEPAM] |  |  | > 30 | > 30 | > 30 | > 30 | > 10 | > 30 | > 10 |
| CC(CCc1ccccc1)NC(C)C(O)c1ccc(O)cc1 (stereo not given) [NYLIDRIN] |  |  | > 30 | > 30 | > 30 | > 30 | > 10 | > 30 |  |
| O=C1Nc2ccc(Cl)cc2C(c2ccccc2)=NC1O (stereo not given) [OXAZEPAM] |  |  | > 30 | > 30 | > 30 | > 30 | > 10 | > 30 | > 10 |
| Cc1ccc(=O)n(-c2ccccc2)c1 [PIRFENIDONE] |  | > 50 |  |  |  |  |  |  |  |
| CC(C)CC(N(C)C)C1(c2ccc(Cl)cc2)CCC1 (stereo not given) [SIBUTRAMINE] |  |  | > 30 | > 30 | > 30 | > 30 |  | > 30 | > 10 |
| [H]/N=C(/N)N[C@H]1[C@H](O)[C@@H](O)[C@H](O[C@@H]2O[C@@H](C)[C@](O)(C=O)[C@H]2O[C@@H]2O[C@@H](CO)[C@H](O)[C@@H](O)[C@@H]2NC)[C@@H](N/C(N)=N\[H])[C@@H]1O [STREPTOMYCIN] |  |  | > 30 | > 30 | > 30 | > 30 | > 10 | > 30 | > 10 |
| COc1c(O[C@@H]2O[C@H](CO)[C@@H](O)[C@H](O)[C@H]2O)cc2c(c1OC)-c1ccc(SC)c(=O)cc1[C@@H](NC(C)=O)CC2 [THIOCOLCHICOSIDE] | > 30 |  |  |  |  |  |  |  |  |
| N#C[C@@H]1CCCN1C(=O)CNC12CC3CC(CC(O)(C3)C1)C2 [VILDAGLIPTIN] |  |  |  |  |  |  | > 10 |  | > 10 |
